Where a name gives a salt, the structure may show the parent alone. Read-outs that look alike come from different tables or passages of the source.
Tests used:
[1] = target: human TLR7 (Homo sapiens (Human), UniProt Q9NYK1); assay: TLR7 inhibition reporter assay (HEK-Blue SEAP reporter, gardiquimod stimulation); type: cell-based; conditions: HEK-Blue cells overexpressing human TLR7, gardiquimod 7.5 μM
[2] = target: human TLR8 (Homo sapiens (Human), UniProt Q9NR97); assay: TLR8 inhibition reporter assay (HEK-Blue SEAP reporter, R848 stimulation);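 further: SEAP driven by IFN-β minimal promoter with NF-κB and AP-1 sites, 22 h incubation, compounds 0.05 nM–50 µM, inhibition scaled between agonist plus DMSO and reference inhibitor wells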
human TLR8, sequence (Q9NR97 27-1041): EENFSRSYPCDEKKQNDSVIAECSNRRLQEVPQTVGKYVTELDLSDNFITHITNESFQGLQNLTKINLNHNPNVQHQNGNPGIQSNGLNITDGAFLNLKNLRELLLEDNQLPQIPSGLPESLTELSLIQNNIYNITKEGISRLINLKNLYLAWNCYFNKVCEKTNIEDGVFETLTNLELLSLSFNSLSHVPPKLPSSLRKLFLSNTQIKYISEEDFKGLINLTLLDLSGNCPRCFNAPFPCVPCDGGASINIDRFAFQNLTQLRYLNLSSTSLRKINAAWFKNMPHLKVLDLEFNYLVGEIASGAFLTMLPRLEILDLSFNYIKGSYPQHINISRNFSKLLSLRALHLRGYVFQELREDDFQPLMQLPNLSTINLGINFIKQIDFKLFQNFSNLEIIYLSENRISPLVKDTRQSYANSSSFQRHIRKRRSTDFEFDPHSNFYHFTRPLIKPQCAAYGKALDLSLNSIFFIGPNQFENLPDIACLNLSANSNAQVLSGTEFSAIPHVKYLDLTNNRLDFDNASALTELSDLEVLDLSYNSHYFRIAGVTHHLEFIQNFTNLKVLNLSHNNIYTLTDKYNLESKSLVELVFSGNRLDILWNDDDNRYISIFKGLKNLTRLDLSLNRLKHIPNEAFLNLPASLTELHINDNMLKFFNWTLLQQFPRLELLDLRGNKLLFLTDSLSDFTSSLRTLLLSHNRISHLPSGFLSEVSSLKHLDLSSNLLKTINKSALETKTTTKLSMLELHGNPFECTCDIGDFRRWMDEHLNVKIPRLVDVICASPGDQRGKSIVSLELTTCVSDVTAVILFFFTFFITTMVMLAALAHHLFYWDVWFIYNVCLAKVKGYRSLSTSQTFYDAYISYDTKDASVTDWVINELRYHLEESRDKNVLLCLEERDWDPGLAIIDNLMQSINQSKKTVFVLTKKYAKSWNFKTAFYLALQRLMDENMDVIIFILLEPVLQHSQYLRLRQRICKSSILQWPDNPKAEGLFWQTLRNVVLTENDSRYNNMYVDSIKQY

[3] = target: human TLR9 (Homo sapiens (Human), UniProt Q9NR96); assay: TLR9 inhibition reporter assay (HEK-Blue SEAP reporter, ODN2006 stimulation);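 further: SEAP reporter under IFN-β minimal promoter with five NF-κB and AP-1 sites, 22 h incubation, compounds 0.05 nM–50 µM, inhibition relative to agonist plus DMSO versus known inhibitor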
human TLR9, sequence (Q9NR96 26-1032): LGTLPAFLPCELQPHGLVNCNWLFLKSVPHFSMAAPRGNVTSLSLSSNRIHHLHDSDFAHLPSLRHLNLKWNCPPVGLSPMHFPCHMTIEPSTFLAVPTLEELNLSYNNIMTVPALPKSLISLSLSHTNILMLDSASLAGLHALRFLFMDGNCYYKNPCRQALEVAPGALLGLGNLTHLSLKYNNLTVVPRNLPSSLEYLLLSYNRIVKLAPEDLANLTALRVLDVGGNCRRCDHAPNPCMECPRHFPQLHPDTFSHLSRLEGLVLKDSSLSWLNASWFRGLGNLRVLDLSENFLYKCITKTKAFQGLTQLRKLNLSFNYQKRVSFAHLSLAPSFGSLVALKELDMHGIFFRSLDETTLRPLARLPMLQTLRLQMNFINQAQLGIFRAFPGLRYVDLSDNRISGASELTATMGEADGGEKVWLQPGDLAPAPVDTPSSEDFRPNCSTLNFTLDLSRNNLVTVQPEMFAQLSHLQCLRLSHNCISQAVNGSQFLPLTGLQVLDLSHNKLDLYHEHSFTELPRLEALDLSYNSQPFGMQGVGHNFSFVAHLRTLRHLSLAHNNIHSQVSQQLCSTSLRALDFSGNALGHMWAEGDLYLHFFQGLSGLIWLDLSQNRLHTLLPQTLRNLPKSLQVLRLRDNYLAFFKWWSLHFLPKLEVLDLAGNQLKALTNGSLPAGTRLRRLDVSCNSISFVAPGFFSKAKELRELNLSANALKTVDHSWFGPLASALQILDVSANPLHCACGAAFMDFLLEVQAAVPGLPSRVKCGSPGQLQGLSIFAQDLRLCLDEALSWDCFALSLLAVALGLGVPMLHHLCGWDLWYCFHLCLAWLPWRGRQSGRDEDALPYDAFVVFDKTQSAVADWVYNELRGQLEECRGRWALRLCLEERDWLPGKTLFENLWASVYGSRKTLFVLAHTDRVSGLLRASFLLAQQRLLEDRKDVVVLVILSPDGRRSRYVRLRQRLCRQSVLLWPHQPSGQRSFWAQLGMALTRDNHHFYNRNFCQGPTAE

[4] = read-out: TLR8 IC50, HEK-Blue cells overexpressing human TLR8, R848 15.9 μM, SEAP reporter
[5] = read-out: TLR9 IC50, HEK-Blue cells overexpressing human TLR9, ODN2006 5 nM, SEAP reporter

human TLR7, sequence (Q9NYK1 27-1049): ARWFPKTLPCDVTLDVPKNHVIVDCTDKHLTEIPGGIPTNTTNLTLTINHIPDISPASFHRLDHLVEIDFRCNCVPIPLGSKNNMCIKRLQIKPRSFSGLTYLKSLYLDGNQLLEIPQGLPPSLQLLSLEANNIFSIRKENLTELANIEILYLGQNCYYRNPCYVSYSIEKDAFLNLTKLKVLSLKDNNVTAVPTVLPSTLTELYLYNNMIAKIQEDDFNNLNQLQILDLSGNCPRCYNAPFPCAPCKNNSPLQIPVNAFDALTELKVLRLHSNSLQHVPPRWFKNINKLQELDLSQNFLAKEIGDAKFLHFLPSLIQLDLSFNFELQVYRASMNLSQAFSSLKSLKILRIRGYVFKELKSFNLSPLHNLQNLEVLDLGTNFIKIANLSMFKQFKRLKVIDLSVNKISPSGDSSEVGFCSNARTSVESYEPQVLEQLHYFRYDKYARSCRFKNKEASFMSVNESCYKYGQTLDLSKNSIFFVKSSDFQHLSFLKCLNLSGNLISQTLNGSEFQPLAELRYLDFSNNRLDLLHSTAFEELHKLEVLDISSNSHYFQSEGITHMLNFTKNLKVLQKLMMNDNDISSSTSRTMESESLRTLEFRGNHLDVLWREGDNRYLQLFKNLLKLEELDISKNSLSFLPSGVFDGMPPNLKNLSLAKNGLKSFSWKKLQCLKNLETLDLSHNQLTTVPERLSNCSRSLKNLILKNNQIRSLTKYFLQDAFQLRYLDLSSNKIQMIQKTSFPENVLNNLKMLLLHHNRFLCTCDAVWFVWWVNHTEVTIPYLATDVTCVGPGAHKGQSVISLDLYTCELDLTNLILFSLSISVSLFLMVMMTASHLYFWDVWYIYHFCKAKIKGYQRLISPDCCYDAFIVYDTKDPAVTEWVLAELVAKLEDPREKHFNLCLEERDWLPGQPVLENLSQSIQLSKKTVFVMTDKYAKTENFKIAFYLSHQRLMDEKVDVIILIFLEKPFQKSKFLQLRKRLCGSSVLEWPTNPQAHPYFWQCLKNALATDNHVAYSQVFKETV

Q: How did the IC50 [1] turn out when `CCc1c(-c2ccc(OC)c(OC)c2)[nH]c2ccc(C(=O)NCCC(N)=O)cc12` [Example 68, N-(3-amino-3-oxopropyl)-2-(3,4-dimethoxyphenyl)-3-ethyl-1H-indole-5-carboxamide] was run?
A: 1.71 µM

Q: And the IC50 [2, 4]?
A: 0.277 µM

Q: And the IC50 [3, 5]?
A: > 50 µM

Q: For `CCc1c(-c2ccc(OC)c(OC)c2)[nH]c2ccc(C(=O)NCCO)cc12` [Example 69, 2-(3,4-dimethoxyphenyl)-3-ethyl-N-(2-hydroxyethyl)-1H-indole-5-carboxamide], which IC50 [1] is on record?
A: 0.968 µM

Q: What about the IC50 [2, 4] of the same compound?
A: 0.274 µM

Q: What about the IC50 [3, 5] of the same compound?
A: > 50 µM

Q: Which results are given for `CCc1c(-c2ccc(OC)c(OC)c2)[nH]c2ccc(C(=O)NCCC(C)(C)NS(C)(=O)=O)cc12` [Example 71, 2-(3,4-dimethoxyphenyl)-3-ethyl-N-(3-methyl-3-(methylsulfonamido)butyl)-1H-indole-5-carboxamide]?
A: IC50 [1]: 1.63 µM; IC50 [2, 4]: 0.439 µM; IC50 [3, 5]: > 50 µM

Q: Which results are given for `CCc1c(-c2ccc(OC)c(OC)c2)[nH]c2ccc(C(=O)NCC(C)(C)CO)cc12` [Example 72, 2-(3,4-dimethoxyphenyl)-3-ethyl-N-(3-hydroxy-2,2-dimethylpropyl)-1H-indole-5-carboxamide]?
A: IC50 [1]: 0.579 µM; IC50 [2, 4]: 0.408 µM; IC50 [3, 5]: > 50 µM

Q: Which IC50 [1] does the source give for `CCc1c(-c2ccc(OC)c(OC)c2)[nH]c2ccc(C(=O)N(CC)CCN(C)C)cc12` [Example 73, 2-(3,4-dimethoxyphenyl)-N-(2-(dimethylamino)ethyl)-N,3-diethyl-1H-indole-5-carboxamide] here?
A: 0.025 µM

Q: And the IC50 [2, 4]?
A: 0.004 µM

Q: And the IC50 [3, 5]?
A: 4.34 µM

Q: `CCc1c(-c2ccc(OC)c(OC)c2)[nH]c2ccc(C(=O)N(C)CCCN(C)C)cc12` [Example 74, 2-(3,4-dimethoxyphenyl)-N-(3-(dimethylamino)propyl)-3-ethyl-N-methyl-1H-indole-5-carboxamide] was tested. Which IC50 [1] did it give?
A: 0.156 µM

Q: What about the IC50 [2, 4] of the same compound?
A: 0.016 µM

Q: What about the IC50 [3, 5] of the same compound?
A: 5.88 µM

Q: `CCc1c(-c2ccc(OC)c(OC)c2)[nH]c2ccc(C(=O)NCCCN(C)C)cc12` [Example 75, 2-(3,4-dimethoxyphenyl)-N-(3-(dimethylamino)propyl)-3-ethyl-1H-indole-5-carboxamide] was tested. Which IC50 [1] did it give?
A: 0.124 µM

Q: And the IC50 [2, 4]?
A: 0.0076 µM

Q: What about the IC50 [3, 5] of the same compound?
A: 0.25 µM

Q: How did the IC50 [1] turn out when `CCc1c(-c2ccc(OC)c(OC)c2)[nH]c2ccc(C(=O)N(C)CCN(C)C)cc12` [Example 76, 2-(3,4-dimethoxyphenyl)-N-(2-(dimethylamino)ethyl)-3-ethyl-N-methyl-1H-indole-5-carboxamide] was run?
A: 0.056 µM

Q: What about the IC50 [2, 4] of the same compound?
A: 0.0039 µM

Q: And the IC50 [3, 5]?
A: 4.89 µM

Q: `CCc1c(-c2ccc(OC)c(OC)c2)[nH]c2ccc(C(=O)N(CCOC)CCOC)cc12` [Example 77, 2-(3,4-dimethoxyphenyl)-3-ethyl-N,N-bis(2-methoxyethyl)-1H-indole-5-carboxamide] was tested. Which IC50 [1] did it give?
A: 0.714 µM

Q: And the IC50 [2, 4]?
A: 0.48 µM

Q: And the IC50 [3, 5]?
A: 40.3 µM

Q: For `CCc1c(-c2ccc(OC)c(OC)c2)[nH]c2ccc(C(=O)N3CC4CNCC4C3)cc12` (stereo not drawn) [Example 79, (2-(3,4-dimethoxyphenyl)-3-ethyl-1H-indol-5-yl)(hexahydropyrrolo[3,4-c]pyrrol-2(1H)-yl)methanone], which IC50 [1] is on record?
A: 0.296 µM

Q: And the IC50 [2, 4]?
A: 0.124 µM

Q: What about the IC50 [3, 5] of the same compound?
A: 1.05 µM

Q: Which results are given for `CCc1c(-c2ccc(OC)c(OC)c2)[nH]c2ccc(C(=O)N3CCN(C4CCN(C(C)C)CC4)CC3)cc12` [Example 80, (2-(3,4-dimethoxyphenyl)-3-ethyl-1H-indol-5-yl)(4-(I-isopropylpiperidin-4-yl)piperazin-1-yl) methanone]?
A: IC50 [1]: 0.177 µM; IC50 [2, 4]: 0.0029 µM; IC50 [3, 5]: 0.836 µM

Q: How did the IC50 [1] turn out when `CCc1c(-c2ccc(OC)c(OC)c2)[nH]c2ccc(C(=O)N3CC4CN(C(C)C)CC4C3)cc12` (stereo not drawn) [Example 81, (2-(3,4-dimethoxyphenyl)-3-ethyl-1H-indol-5-yl)(5-isopropylhexahydropyrrolo[3,4-c]pyrrol-2(1H)-yl)methanone] was run?
A: 0.418 µM

Q: What about the IC50 [2, 4] of the same compound?
A: 0.087 µM

Q: And the IC50 [3, 5]?
A: 1.92 µM

Q: What does the source list for `CCc1c(-c2ccc(OC)c(OC)c2)[nH]c2ccc(C(=O)N3CC4CN(CC(=O)NC)CC4C3)cc12` (stereo not drawn) [Example 82, 2-(5-(2-(3,4-dimethoxyphenyl)-3-ethyl-1H-indole-5-carbonyl)hexahydropyrrolo[3,4-c]pyrrol-2(1H)-yl)-N-methylacetamide]?
A: IC50 [1]: 0.515 µM; IC50 [2, 4]: 0.446 µM; IC50 [3, 5]: 21.9 µM

Q: For `CCc1c(-c2ccnc3[nH]ccc23)[nH]c2ccc(C(=O)N(CC)CCN(C)C)cc12` [Example 83, N-(2-(dimethylamino)ethyl)-N,3-diethyl-2-(1H-pyrrolo[2,3-b]pyridin-4-yl)-1H-indole-5-carboxamide], which IC50 [1] is on record?
A: 0.016 µM

Q: What about the IC50 [2, 4] of the same compound?
A: 0.0005 µM

Q: What about the IC50 [3, 5] of the same compound?
A: 2.35 µM

Q: Which IC50 [1] does the source give for `CCc1c(-c2ccnc(C)c2)[nH]c2ccc(C(=O)N(CC)CCN(C)C)cc12` [Example 84, N-(2-(dimethylamino)ethyl)-N,3-diethyl-2-(2-methylpyridin-4-yl)-1H-indole-5-carboxamide] here?
A: 0.049 µM

Q: What about the IC50 [2, 4] of the same compound?
A: 0.0021 µM

Q: What about the IC50 [3, 5] of the same compound?
A: 2.52 µM

Q: `CCc1c(-c2ccnc(C)c2)[nH]c2ccc(C(=O)N3CC4CNCC4C3)cc12` (stereo not drawn) [Example 85, (3-ethyl-2-(2-methylpyridin-4-yl)-1H-indol-5-yl)(hexahydropyrrolo[3,4-c]pyrrol-2(1H)-yl)methanone] was tested. Which IC50 [1] did it give?
A: 0.776 µM

Q: And the IC50 [2, 4]?
A: 0.16 µM

Q: What about the IC50 [3, 5] of the same compound?
A: 0.386 µM

Q: How did the IC50 [1] turn out when `CCc1c(-c2ccnc(C)c2)[nH]c2ccc(C(=O)N3CC4CN(C(C)C)CC4C3)cc12` (stereo not drawn) [Example 86, (3-ethyl-2-(2-methylpyridin-4-yl)-1H-indol-5-yl)(5-isopropylhexahydropyrrolo[3,4c]pyrrol-2(1H)-yl)methanone] was run?
A: 0.469 µM

Q: And the IC50 [2, 4]?
A: 0.028 µM

Q: What about the IC50 [3, 5] of the same compound?
A: 1.57 µM

Q: `CC(C)c1c(-c2ccnc(N)c2)[nH]c2ccc(C(=O)NC3CCC(N(C)C)CC3)cc12` (stereo not drawn) [Example 87, 2-(2-aminopyridin-4-yl)-N-(4-(dimethylamino)cyclohexyl)-3-isopropyl-1H-indole-5-carboxamide] was tested. Which IC50 [1] did it give?
A: 1.05 µM

Q: What about the IC50 [2, 4] of the same compound?
A: 0.027 µM

Q: What about the IC50 [3, 5] of the same compound?
A: 0.438 µM

Q: With `COc1ccc(-c2[nH]c3ccc(C(=O)N4CC5CNCC5C4)cc3c2CC(F)(F)F)cc1OC` (stereo not drawn) [Example 88, (2-(3,4-dimethoxyphenyl)-3-(2,2,2-trifluoroethyl)-1H-indol-5-yl)(hexahydropyrrolo[3,4-c]pyrrol-2(1H)-yl)methanone hydrochloride] as the compound, how does the IC50 [1] read?
A: 0.401 µM

Q: And the IC50 [2]?
A: 0.278 µM

Q: What about the IC50 [3] of the same compound?
A: 0.593 µM

Q: With `COc1ccc(-c2[nH]c3ccc(C(=O)N4CC5CN(C(=O)CN(C)C)CC5C4)cc3c2CC(F)(F)F)cc1OC` (stereo not drawn) [Example 89, 1-(5-(2-(3,4-dimethoxyphenyl)-3-(2,2,2-trifluoroethyl)-1H-indole-5-carbonyl)hexahydropyrrolo[3,4-c]pyrrol-2(1H)-yl)-2-(dimethylamino)ethan-1-one] as the compound, how does the IC50 [1] read?
A: 0.914 µM

Q: What about the IC50 [2, 4] of the same compound?
A: 0.217 µM

Q: And the IC50 [3, 5]?
A: 5.87 µM

Q: Which results are given for `COc1ccc(-c2[nH]c3ccc(C(=O)N4CC5CN(CC(=O)N(C)C)CC5C4)cc3c2CC(F)(F)F)cc1OC` (stereo not drawn) [Example 90, 2-(5-(2-(3,4-dimethoxyphenyl)-3-(2,2,2-trifluoroethyl)-1H-indole-5-carbonyl)hexahydropyrrolo[3,4-c]pyrrol-2(1H)-yl)-N,N-dimethylacetamide]?
A: IC50 [1]: 0.866 µM; IC50 [2, 4]: 0.344 µM; IC50 [3, 5]: 4.05 µM

Q: Which results are given for `Cc1cc(-c2[nH]c3ccc(C(=O)NC4CCN(C(C)C)CC4)cc3c2C(C)C)cc(C)n1` [Example 91, 2-(2,6-dimethylpyridin-4-yl)-3-isopropyl-N-(1-isopropylpiperidin-4-yl)-1H-indole-5-carboxamide]?
A: IC50 [1]: 0.0092 µM; IC50 [2, 4]: 0.0021 µM; IC50 [3, 5]: 0.67 µM

Q: Which results are given for `Cc1cc(-c2[nH]c3ccc(C(=O)N4CCCN(C)CC4)cc3c2C(C)C)cc(C)n1` [Example 92, (2-(2,6-dimethylpyridin-4-yl)-3-isopropyl-1H-indol-5-yl)(4-methyl-1,4-diazepan-1-yl)methanone]?
A: IC50 [1]: 0.032 µM; IC50 [2, 4]: 0.0032 µM; IC50 [3, 5]: 2.47 µM

Q: With `CCN(CCN(C)C)C(=O)c1ccc2[nH]c(-c3cc(C)nc(C)c3)c(C(C)C)c2c1` [Example 93, N-(2-(dimethylamino)ethyl)-2-(2,6-dimethylpyridin-4-yl)-N-ethyl-3-isopropyl-1H-indole-5-carboxamide] as the compound, how does the IC50 [1] read?
A: 0.0029 µM

Q: And the IC50 [2, 4]?
A: 0.0014 µM

Q: What about the IC50 [3, 5] of the same compound?
A: 0.594 µM

Q: Which results are given for `Cc1cc(-c2[nH]c3ccc(C(=O)N(C)C)cc3c2C(C)C)cc(C)n1` [Example 94, 2-(2,6-dimethylpyridin-4-yl)-3-isopropyl-N,N-dimethyl-1H-indole-5-carboxamide]?
A: IC50 [1]: 0.018 µM; IC50 [2, 4]: 0.023 µM; IC50 [3, 5]: > 50 µM

Q: Which IC50 [1] does the source give for `Cc1cc(-c2[nH]c3ccc(C(=O)NCCCN(C)C)cc3c2C(C)C)cc(C)n1` [Example 95, N-(3-(dimethylamino)propyl)-2-(2,6-dimethylpyridin-4-yl)-3-isopropyl-1H-indole-5-carboxamide] here?
A: 0.05 µM

Q: What about the IC50 [2, 4] of the same compound?
A: 0.0036 µM

Q: What about the IC50 [3, 5] of the same compound?
A: 0.516 µM

Q: Which results are given for `Cc1cc(-c2[nH]c3ccc(C(=O)NCCN(C)C)cc3c2C(C)C)cc(C)n1` [Example 96, N-(2-(dimethylamino)ethyl)-2-(2,6-dimethylpyridin-4-yl)-3-isopropyl-1H-indole-5-carboxamide]?
A: IC50 [1]: 0.075 µM; IC50 [2, 4]: 0.0073 µM; IC50 [3, 5]: 1.5 µM

Q: Which IC50 [1] does the source give for `CNC(=O)c1ccc2[nH]c(-c3cc(C)nc(C)c3)c(C(C)C)c2c1` [Example 97, 2-(2,6-dimethylpyridin-4-1)-3-isopropyl-N-methyl-1H-indole-5-carboxamide] here?
A: 0.045 µM

Q: And the IC50 [2, 4]?
A: 0.03 µM

Q: And the IC50 [3, 5]?
A: > 50 µM

Q: How did the IC50 [1] turn out when `Cc1cc(-c2[nH]c3ccc(C(=O)N4CCN(Cc5ncn(C)n5)CC4)cc3c2C(C)C)cc(C)n1` [Example 98, (2-(2,6-dimethylpyridin-4-yl)-3-isopropyl-1H-indol-5-yl)(4-((1-methyl-1H-1,2,4-triazol-3-yl)methyl)piperazin-1-yl)methanone] was run?
A: 0.082 µM

Q: What about the IC50 [2, 4] of the same compound?
A: 0.045 µM

Q: What about the IC50 [3, 5] of the same compound?
A: > 50 µM

Source: patent US11420973B2, “Amide substituted indole compounds useful as TLR inhibitors” (BRISTOL-MYERS SQUIBB COMPANY, priority 2017, dated 2022)
